Data set [1] concerns A549 cells. Put plainly: Pulse exposure to probes, time-lapse, reimaged after 72 h. As to conditions: 20 uM for 15 mins, washout, T=72 h. Type of data set: cell-based, human. Here is the method:
In this regard, A549 cells were seeded in a 24 well coverslip bottomed-plate, cultured overnight in McCoys media for 24 or 48 hours. The plates were placed onto an inverted automated microscope, with the capacity for acquiring an image sequence of different wells (therefore exposure to different agent labelling). An Axiovert 100 microscope (Carl Zeiss, Welwyn Garden City, UK) was fitted with an incubator for 37° C./5% CO2 maintenance (Solent Scientific, Portsmouth, UK), and an ORCA-ER CCD camera (Hamamatsu, Reading, UK). Illumination was controlled by a shutter in front of the transmission lamp, and an x, y positioning stage with separate z-focus (Prior Scientific, Cambridge, UK) controlled multi-field acquisition. Image capture was controlled using Metamorph software.
Cells were exposed to a constant dose (0-5 μM) or a pulsed dose of 0 or 20 μM agent for 15 minutes followed by washout with warmed full media.
All images were collected with a ×10 (PH1) apochromat objective lens providing a field size of 500 times 500 microns. In this case a phase contrast image was collected every 30 minutes for 72 hours. Single cell growth and expansion can be tracked over time. The cells were harvested and run through a flow cytometry (typically a FACS Calibur 635 nm excitation/661/16 emission).
A549 cells were loaded with 20 uM BST-101, BST-109 or BST-110 for 15 mins followed by washout. Cells were then time-lapsed and reimaged after T=72 h, as before, […]

The subject of data set [2] is A549 live cells. Description: Loading of A549 live cells, wide-field fluorescence microscopy. As to conditions: 20 μM, 30 min incubation, FIG. 3. Type of data set: cell-based, human. An outline of the steps:
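Live A549 cells incubated 30 min at 37° C. in the dark with compound at 20 μM (DRAQ5 at 20 μM as reference), imaged unwashed. Uptake and localisation of red fluorescence assessed by low-resolution wide-field fluorescence microscopy, ×10 0.3 NA objective, 30 ms exposure.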

The nature of data set [3]: Absorption and fluorescence spectra of compounds in PBS or HEPES. As to conditions: for peak excitation wavelength: excitation wavelength used for fluorescence spectra of FIG. 1A/1B; for fluorescence emission, 540 nm (Ex in PBS): excited at 540 nm; for fluorescence emission, 540 nm (Ex in PBS) / fluorescence emission, λ1 nm (Ex in HEPES) / fluorescence emission, λ1 nm (Ex in PBS): 20 μM; for fluorescence emission, λ1 nm (Ex in HEPES) / fluorescence emission, λ1 nm (Ex in PBS): excited at absorption peak 1 (λ1). It is filed as physicochemical. Put shortly:
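Compounds (20 μM working solutions) in PBS or HEPES, read in quartz cuvette against buffer baseline, absorbance scanned 280–800 nm. Emission scanned 400–900 nm in 1 nm steps with excitation at each compound's first absorption peak or 540 nm, ten reads per point. DRAQ5 served as reference; spectra normalised to peak.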

`COC(CC(=O)NCCNc1ccc(NCCN(C)C)c2c1C(=O)c1ccccc1C2=O)OC` [BST-110, N-(2-(4-(2-(dimethylamino)ethylamino)-9,10-dioxo-9,10-dihydroanthracen-1-ylamino)ethyl)-3,3-dimethoxypropanamide]: in data set [1], the “cell division and signal retention / location after pulse exposure” value is “dividing, and signal now relocated in a non-nuclear compartment perinuclear”. Besides, in data set [2], the “fluorescence brightness / background in live cells” value is recorded as “very bright cellular fluorescence”. In addition, in data set [3], the peak excitation wavelength worked out at 583 nm; the “fluorescence emission, 540 nm (Ex in PBS)” value is recorded as 662 nm; the “fluorescence emission, λ1 nm (Ex in HEPES)” value is reported as 660 nm; the “fluorescence emission, λ1 nm (Ex in PBS)” value was determined as 665.5 nm.
`COC(CNC(=O)CCNc1ccc(NCCN(C)C)c2c1C(=O)c1ccccc1C2=O)OC` [BST-109, N-(2,2-Dimethoxyethyl)-3-(4-(2-(dimethylamino)ethylamino)-9,10-dioxo-9,10-dihydroanthracen-1-ylamino)propanamide]: in data set [1], the “cell division and signal retention / location after pulse exposure” value is “dividing, and signal retained but now relocated in a non-nuclear compartment perinuclear”. The “fluorescence brightness / background in live cells” value in data set [2] is given as “very bright cellular fluorescence”. For the same compound, in data set [3], the peak excitation wavelength is listed as 584 nm; the “fluorescence emission, 540 nm (Ex in PBS)” value was found to be 660 nm; the “fluorescence emission, λ1 nm (Ex in HEPES)” value is recorded as 660 nm; the “fluorescence emission, λ1 nm (Ex in PBS)” value is listed as 666 nm.

Source of the values: US11447638B2, “Acetalanthraquinone derivatives useful for cellular staining” (BIOSTATUS LIMITED, priority 2016, dated 2022).
